Tested on: blood clots
Assay: in vitro clot lysis assay (release of solubilized 125I-fibrin-derived fragments, lysis initiated by TPA)
Description: In the assay, whole blood or plasma is charged with ^125 I-fibrinogen. Thrombin is added to initiate clot formation and subsequently incubated for 2 hours to complete the cross-linking by endogenous Factor XIII. Factor XIIIa inhibitor is added prior to clot initiation or at various times during the 2-hour incubation. At the end of this period, the labelled clot is washed and lysis is initiated by exogenous tissue plasminogen activator (TPA). Exogenous plasminogen is employed in some experiments. Endogenous plasminogen is used for others. Clot dissolution as a function of time is monitored by the release of solubilized ^125 I-fibrin-derived fragments.
In FIGS. 1 and 2, the open symbols indicate absence of cerulenin and the closed symbols indicate the presence of 200 μM cerulenin at the time of clot formation. Clot lysis is conducted in buffer, pH 7.5; 5 ng/mL TPA represents approximate physiologic concentration. 50 to […] represents pharmacologic concentration range. […] FIG. 2 studies employed glu-plasminogen levels at approximately 10 percent physiologic level (12 μ/mL).

C/C=C/C/C=C/CCC(=O)[C@H]1O[C@H]1C(N)=O [Cerulenin, 3-(1-oxo-4,7-nonadienyl)-oxiranecarboxamide]
rates and extents of clot lysis (200 μM cerulenin at clot formation, no exogenous plasminogen, TPA at physiological and pharmacological levels, buffer pH 7.5 (FIG. 1)): enhanced rates and extents of lysis | rate of TPA catalyzed clot lysis (200 μM cerulenin, 12 μg/mL exogenous glu-plasminogen, TPA, buffer pH 7.5 (FIG. 2)): lysis rates were further enhanced

Reference: patent US5188830A, “Methods for thrombolytic therapy” (Merck & Co., Inc., priority 1990, dated 1993)
